Values of other authors in US20260137644A1, “COMPOSITIONS INCLUDING CAFFEIC ACID PHENETHYL ESTER” (XMK THERAPEUTICS INC., priority 2022, published 2026).

Assays:
NFAT = conditions: Jurkat cells
[1] = system: carrageenin-induced inflammation

**Q.** With `O=C(/C=C/c1ccc(O)c(O)c1)OCCc1ccccc1` [CAPE, 2-phenylethyl (E)-3-(3,4-dihydroxyphenyl)prop-2-enoate] as the compound, how does the “binding with DNA and transcriptional activity of NFAT” value (NFAT) read?
**A.** inhibition

**Q.** And the antimicrobial activity (Enterococcus faecalis)?
**A.** active

**Q.** What about the “interleukin-2 (IL-2) gene transcription and synthesis” value (interleukin-2 (IL-2)) of the same compound?
**A.** inhibition

**Q.** What about the antimicrobial activity (Listeria monocytogenes) of the same compound?
**A.** active

**Q.** What about the exudate volume [1] of the same compound?
**A.** suppresses

**Q.** What about the leukocytes relocation [1] of the same compound?
**A.** suppresses

**Q.** What about the antimicrobial activity (Haemophilus influenzae) of the same compound?
**A.** active

**Q.** And the antimicrobial activity (Staphylococcus aureus)?
**A.** active
